Where a name gives a salt, the structure may show the parent alone. Numbered stars: 1 amine (or outer) side, 2 acyl side, 3 side chain; on linkers, the order of the positions; unused ones are H or OH. Bridge positions count the residues as written; N and C are the ends. Square brackets hold non-standard residues; d marks the D form. Peptide text beside a SMILES is read from it. I, II: the chains in the order shown. Actinocin(9to1) = Cc1c2oc3c(C)ccc(C(=O)[*:1])c3nc-2c(C(=O)[*:2])c(N)c1=O; NMeV = CN[C@H](C(=O)O)C(C)C; Sar = CNCC(=O)O

For data set [1] the following is noted: cited from earlier work.
For data set [2] the following is noted: previously untreated chronic myelogenous leukemia; cited from earlier work.
For data set [3] the following is noted: cited from earlier work. This is another data set of the same source.
In the next data set the test system is U937 cells. Put plainly: U937 apoptosis, Annexin V-FITC staining and flow cytometry. The following applies: for induction of apoptosis: 24 hr, low dose of H7 (25 μM) or ceramide (5 μM). The format is cell-based, Human. The method, then:
It is well known that ceramide functions as a negative cell regulator that can induce cell cycle arrest, senescence or apoptosis. In contrast, DAG stimulates cell proliferation and promotes cell survival, primarily via activation of PKC. To determine if the changes in the levels of ceramide and DAG resulting from SMS inhibition contribute to D609-induced apoptosis in U937 cells, the cells were incubated with vehicle, H7 (a PKC inhibitor), ceramide, or H7 plus ceramide. U937 cells (1×10^6/ml) were incubated with 5 μM C6-ceramide and 25 μM H7 alone or combination for 24 hr at 37° C. Apoptosis of the cells was measured by Annexin V-FITC staining and flow cyotmetry and expressed as percent of Annexin V positive cells. a, p<0.05 vs Control; b, p<0.05 vs H7- or C6-treated cells (FIG. 11).
In these experiments, U937 cells were pre-incubated with PMA (25 nM) for 30 min. and then were cultured with vehicle or D609 (150 μM) for 24 hrs.

Data set [4] relates to Porcine liver esterase (PLE). In words: Esterase-catalyzed hydrolysis of D609 prodrugs. Format: in vitro ADME. Conditions: for T1/2 / kobs: 300 μM, 0.1 unit/ml PLE, 37° C., pH 7.4. The method, then:
FIG. 18A, FIG. 18B, FIG. 18C: Esterase-catalyzed hydrolysis of D609 prodrugs. Prodrugs (300 μM in 15% DMSO/PBS, pH 7.4), 1 (FIG. 18A), 2 (FIG. 18B) and 3 (FIG. 18C), were incubated at 37° C. in the presence of 0.1 unit/ml PLE. […] The data are presented as the mean±SEM of three independent assays.
To determine the hydrolytic property of D609 prodrugs 1, 2, and 3 (300 μM in 15% DMSO/PBS, pH7.4), these prodrugs were incubated with 0.1 unit/ml PLE at 37° C. After various times during incubation, the rate of hydrolysis of these D609 prodrugs was monitored by HPLC analysis. […] The concentration of D609 (μM) was calculated based on a linear D609-DTNB standard curve. The pseudo-first-order plots for the hydrolysis of these prodrugs were constructed from the logarithm of remaining ester versus time (FIG. 18). The end points of the reaction (150 min) were defined as when the hydrolysis of these prodrugs was over 99% complete and the release of D609 reached plateau. The pseudo-first-order rate constant (Kobs) and T1/2 (=0.693/Kobs) were calculated based on the slope of the linear portion of the curve for each of these prodrugs and are presented in Table 1 (Gilmer et al., 2002).

For data set [5], the system named is sphingomyelin synthase (SMS). Put plainly: SMS activity in U937 cell lysates with inhibitor added (cell lysate-based in vitro assay). Conditions: 30 min at 30° C. The format is biochemical, Human. Here is the method: (§1) In this study, p-nitrophenyl-phosphorylcholine (pNPP, 40 mM) was incubated with 2 U/ml phospholipase C (Type XI from B. cereus) in the presence or absence of various concentrations of inhibitors for 2 hrs at 37° C. The amount of the cleaved substrate pNPP was quantified by determination of the optical density at 410 nm using an ELISA reader. The results are expressed as percent of vehicle control and presented as means±SEM (n=3) (FIG. 9A). NBD-C6-ceramide and PC were incubated with U937 cell lysates containing 50 μg protein in the presence or absence of various concentrations of inhibitors for 30 min at 30° C. The formation of NBD-C6-sphingomyelin as analyzed by TLC and quantified by determination of the fluorescent intensity of NBD-C6-sphingomyelin using a phosphorimager. The results are expressed as percent of vehicle control (FIG. 9B). U937 cells were incubated with different concentrations of inhibitors for 48 hours.

Data set [6] has as its target phospholipase C (Type XI from B. cereus) (Bacillus cereus, UniProt P09598). The format is biochemical. The following applies: 2 hrs at 37° C., pNPP 40 mM. Here is the method: as §1
A further data set deals with alkaline phosphatase. Conditions: 222 μM, 3.125 U/ml, pH 9.0, 37° C.
The conditions of data set [7]: Chevion et al., 1997; cited from earlier work.

Sequence of phospholipase C (Type XI from B. cereus) (P09598 39-283 limits assumed): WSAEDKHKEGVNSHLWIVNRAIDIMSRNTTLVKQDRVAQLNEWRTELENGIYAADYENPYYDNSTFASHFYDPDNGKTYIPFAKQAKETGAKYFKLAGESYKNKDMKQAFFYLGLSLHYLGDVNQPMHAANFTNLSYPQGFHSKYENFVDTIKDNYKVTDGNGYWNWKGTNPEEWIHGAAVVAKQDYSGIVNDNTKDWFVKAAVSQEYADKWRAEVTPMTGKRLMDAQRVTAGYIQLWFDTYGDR

As to `Cc1c2oc3c(C)ccc(C(=O)N[C@@H]4C(=O)N[C@H](C(C)C)C(=O)N5CCC[C@H]5C(=O)N(C)CC(=O)N(C)[C@@H](C(C)C)C(=O)O[C@@H]4C)c3nc-2c(C(=O)N[C@@H]2C(=O)N[C@H](C(C)C)C(=O)N3CCC[C@H]3C(=O)N(C)CC(=O)N(C)[C@@H](C(C)C)C(=O)O[C@@H]2C)c(N)c1=O` [Actinomycin D] (I: T[dV]P[Sar][NMeV] / II: T[dV]P[Sar][NMeV]; ester I:1-I:C, II:1-II:C; linker I:N-II:N via Actinocin(9to1)), in data set [1] (in vivo), the “excreted intact into the bile” value is on record as “Half of the dose”, the “excreted intact into the urine” value is on record as 10%, the “half-life (elimination)” value is on record as “about 36 hr” and the “passage of the blood-brain barrier” value is reported as “does not pass the blood-brain barrier”.

Regarding `CS(=O)(=O)OCCCCOS(C)(=O)=O` [Busulfan, 1,4-butanediol dimethanesulfonate], the “adults obtaining hematologic remission” value in data set [2] is “Approximately 90%”.

Take `O=C(O)CCCc1ccc(N(CCCl)CCCl)cc1` [Chlorambucil, 4-[bis(2-chlorethyl)amino] benzenebutanoic acid]: in data set [1] (in vivo), the oral absorption entry was “rapidly and completely absorbed from the gastrointestinal tract”. Take `N.N.[Cl][Pt][Cl]` [Cisplatin]: the oral absorption result in data set [1] (in vivo) is given as “not absorbed orally”. With `COc1cccc2c1C(=O)c1c(O)c3c(c(O)c1C2=O)C[C@@](O)(C(C)=O)C[C@@H]3O[C@H]1C[C@H](N)[C@H](O)[C@H](C)O1` [Daunorubicin, 5,12-Naphthacenedione, (8S-cis)-8-acetyl-10-[(3-amino-2,3,6-trideoxy-a-L-lyxo-hexanopyranosyl)oxy]-7,8,9,10-tetrahydro-6,8,11 trihydroxy-10-methoxy-, hydrochloride], in data set [1] (in vivo), the oral absorption entry is “Oral absorption is poor” and the “half-life (elimination)” value is “about 19 hr”.

In the case of `COc1cccc2c1C(=O)c1c(O)c3c(c(O)c1C2=O)C[C@@](O)(C(=O)CO)C[C@@H]3O[C@H]1C[C@H](N)[C@H](O)[C@H](C)O1` [Doxorubicin, 5,12-Naphthacenedione, (8s-cis)-10-[(3-amino-2,3,6-trideoxy-α-L-lyxo-hexopyranosyl)oxy]-7,8,9,10-tetrahydro-6,8,11-trihydroxy-8-(hydroxyacetyl)-1-methoxy-hydrochloride], in data set [1] (in vivo), the oral absorption result was “absorbed poorly” and the “half-life (elimination)” value is reported as “about 30 hr”.

Take `O=NN(CCCl)C(=O)NC1CCCCC1` [Lomustine, 1-(2-chloro-ethyl)-3-cyclohexyl-1 nitrosourea]: the “radioactivity excreted as degradation products” value in data set [1] (oral, 30 mg/m^2 to 100 mg/m^2, within 24 hours) was “about half”. `CO[C@@]12[C@H](COC(N)=O)C3=C(C(=O)C(C)=C(N)C3=O)N1C[C@@H]1N[C@@H]12` [Mitomycin]: the “time required to reduce the serum concentration by 50%” value in [3] (30 mg. bolus injection) is 17 min. Moreover, the “dose excreted unchanged in the urine” value in [3] (in vivo) was “Approximately 10%”. For the molecule `CCCCCCCCCCCCCC(=O)O[C@@H]1[C@@H](C)[C@@]2(O)[C@@H](C=C(CO)C[C@]3(O)C(=O)C(C)=C[C@@H]23)[C@@H]2C(C)(C)[C@]12OC(C)=O` [PMA], in the data set on U937 cells (PMA 25 nM 30 min before D609 150 μM, 24 hrs), the “effect on D609-induced apoptosis” value is recorded as “partially attenuated D609-induced apoptosis”.

As for `CC(=O)OCSC(=S)OC1CC2CC1C1CCCC21` (stereo not shown) [Prodrug 1, S-methyleneoxyacetyl D609], in data set [4], the T1/2 is recorded as 3.34 min and the kobs was 0.2074 min⁻¹. Take `CC(C)(C)C(=O)OCSC(=S)OC1CC2CC1C1CCCC21` (stereo not shown) [Prodrug 3, S-methyleneoxypivalyl D609]: in data set [4], the T1/2 is 23.22 min and the kobs is 0.02984 min⁻¹. The “% D609 (molar recovery of D609)” value in data set [4] (complete hydrolysis by esterase) was 60%.

Regarding `CC1CNCCN1S(=O)(=O)c1cccc2cnccc12` (stereo not shown) [Prodrug H7], the induction of apoptosis entry in the data set with U937 cells is given as “modest”. Regarding `OC1CC2CC1C1CCCC21` (stereo not shown) [Tricyclodecanol], in data set [5], the “inhibition of SMS activity” value is listed as “devoid of any of these activities”. Further, in [6], the “inhibition of PC-PLC activity” value is recorded as “devoid of any of these activities”. For the molecule `CC[C@]1(O)C[C@@H]2CN(CCc3c([nH]c4ccccc34)[C@@](C(=O)OC)(c3cc4c(cc3OC)N(C)[C@H]3[C@@](O)(C(=O)OC)[C@H](OC(C)=O)[C@]5(CC)C=CCN6CC[C@]43[C@@H]65)C2)C1` [Vinblastine], in [1] (in vivo), the oral absorption entry was “Unpredictable absorption”, the “excreted intact into the urine” value is “Approximately 15%” and the “recovered in the feces after biliary excretion” value is recorded as “about 10%”. Also, in data set [1] (intravenous injection), the “plasma half-life after distribution (first)” value is reported as “approximately 1 hours” and the “plasma half-life after distribution (second)” value was around 72000 s. In data set [1] (usual clinical doses), the “peak concentration in plasma” value is on record as “approximately 0.4 mM”.

On to `CC[C@]1(O)C[C@H]2CN(CCc3c([nH]c4ccccc34)[C@@](C(=O)OC)(c3cc4c(cc3OC)N(C=O)[C@H]3[C@@](O)(C(=O)OC)[C@H](OC(C)=O)[C@]5(CC)C=CCN6CC[C@]43[C@@H]65)C2)C1` [Vincristine], for which, in data set [1] (in vivo), the oral absorption entry is listed as “Unpredictable absorption”. In addition, in data set [1] (plasma), the terminal half-life entry is reported as “about 24 hours”. On to `CCCCCCCCCCCCCC=CC(O)C(CO)NC(=O)CCCCC` (stereo not shown) [ceramide], for which, in the data set on U937 cells, the induction of apoptosis entry was “modest”. With `CC(C)(C)OP(=O)(OCSC(=S)OC1CC2CC1C1CCCC21)OC(C)(C)C` (stereo not drawn) [compound 7, S-(methylenoxy)-D609, di(t-butoxy)phosphoryl], the “time to complete hydrolysis” value in the data set on alkaline phosphatase is recorded as at most 60 min. Take `S=C(S)OC1CCCCC1` [cyclohexyl xanthate]: the “inhibition of SMS activity” value in data set [5] is “had no effect”. For the same molecule, in data set [6], the “inhibition of PC-PLC activity” value is given as “dose-dependently inhibited”. As to `COc1cccc2c1C(=O)c1c(O)c3c(c(O)c1C2=O)C[C@@](O)([C@H](C)O)C[C@@H]3O[C@H]1C[C@H](N)[C@H](O)[C@H](C)O1` [daunorubicinol], in [1] (in vivo), the “half-life (elimination)” value is listed as “about 27 hr”. Consider `O=C1O[C@H]([C@@H](O)CO)C(O)=C1O` [vitamin C], for which the E1/2 in [7] is 380 mV.

The values above are taken from patent publication US20070244076A1, “Site and Rate Selective Prodrug Formulations of D609 with Antioxidant and Anticancer Activity” (priority 2003, published 2007).
